We go through one compound from patent publication US11980633B2, “Method for treating cancer using a combination of DNA-damaging agents and DNA-PK inhibitors” (Vertex Pharmaceuticals Incorporated, priority 2016, dated 2024).

The test system of the assay is pKAP1 and pH2AX levels in MDA-MB-468 breast cancer cells. Description: pKAP1 and pH2AX immunoblot, doxorubicin pulse (wash-out) with Compound B-2 in MDA-MB-468 cells. In kind it is cell-based, human. Particulars: 1 μM Compound B-2 + 500 nM doxorubicin pulse; beginning at 1 h doxorubicin exposure, harvested at 8 h. How it is done: Materials and Methods. The human cancer cell lines A549 (CCL-185), DU4475 (HTB-123), MDA-MB-436 (HTB-130), and MDA-MB-468 (HTB-132) were obtained from American Type Culture Collection (ATCC; Manassas, VA). A 10 mM stock solution of Compound B-1 or Compound B-2 was prepared in DMSO and stored at −20° C. Etoposide and doxorubicin were purchased from Sigma-Aldrich (St. Louis, MO).
The A549 human lung cancer cell line was purchased from ATCC and was cultured in DMEM supplemented with 10% fetal bovine serum, 1× non-essential amino acids and 1× Penicillin/Streptomycin (complete medium). Cells were maintained at a subconfluent state by passaging every 2-3 days. Human breast cancer cells lines DU4475, MDA-MB-436, and MDA-MB-468 were purchased from ATCC and cultured in DMEM supplemented with 10% fetal bovine serum, 1× Glutamax and Penicillin/Streptomycin. Cells were maintained at a subconfluent state by passaging every 2-3 days. […]
In order to determine the effect of a pulse of doxorubicin in combination with a DNA-PK inhibitor on pKAP1 and pH2AX levels, which would more closely simulate an in vivo administration of doxorubicin, MDA-MB-468 breast cancer cells were pre-incubated with 1 μM Compound B-2 for 15 min, followed by addition of 500 nM doxorubicin. […] Cells were harvested 8 h from initial doxorubicin exposure, and analyzed for levels of pKAP1 and pH2AX by immunoblotting. […]
A general note: In western blotting, separated proteins are transferred to a membrane and probed.

`[2H]c1nc(C)nc([2H])c1-c1cc(NC[C@@H](C)c2cccc3c(C(=O)NC)ccnc23)ncn1` [Compound B-2]: the “pKAP1 and pH2AX levels vs doxorubicin alone” value is reported as “enhanced levels”.
